What all share (experiment): DTP human tumour cell line panel, 48 h
Assay [1] has as its system HS 578T breast.
Assay [2] relates to MCF7 breast.
Assay [3] relates to EKVX NSCLC.
Assay [4] deals with A498 renal.
In assay [5] the test system is U251 CNS.
Assay [6] relates to SN12C renal.
In assay [7] the test system is HL-60(TB) leukemia.
Assay [8] relates to SF-268 CNS.
In assay [9] the test system is HCT-116 colon.
For assay [10], the system named is OVCAR-8 ovarian.

GI50 and TGI data for eight compounds are collected here from PubChem BioAssay (NCI).

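Each compound was tested at five concentrations against cells in 96-well plates for 48 hours. Abbreviation: GI50, concentration required for 50% inhibition of growth. TGI: total growth inhibition.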

`NS(=O)(=O)c1ccc(C2C3=C(CCCC3=O)OC3=C2C(=O)c2ccccc2C3=O)cc1` (stereo unspecified): the GI50 (in general, the concentration at which growth is held to half of that of the control) was 1.27 µM in [1]; 0.221 µM in [2]; 0.699 µM in assay [3]; 1.28 µM in assay [4]; 0.318 µM in assay [5]; 0.319 µM in [6]. The GI50 in assay [7] is 0.254 µM; in [8], 0.386 µM; in assay [9], 0.253 µM. Further, the concentration for total growth inhibition (TGI) (as a rule, the concentration giving total growth inhibition) stood at 9.4 µM in assay [1]; 0.752 µM in assay [2]; 2.53 µM in [3]; 2.57 µM in assay [4]; 1.05 µM in [5]; 1.03 µM in [6]. In addition, the TGI in assay [7] turned out to be 0.559 µM; in [8], 1.66 µM; in assay [9], 0.725 µM.

Take `CCN(CC)CCOc1ccc(Nc2ncc3cc(-c4c(Cl)cccc4Cl)c(=O)n(CCOC)c3n2)cc1`: the 50% growth inhibitory concentration (GI50) is 0.0273 µM in assay [1]; 1.57 µM in assay [2]; 0.796 µM in [3]; 0.0235 µM in assay [4]; 0.608 µM in assay [5]; 0.0237 µM in assay [6]. Besides, the GI50 in assay [7] was 0.496 µM; in assay [8] it was 0.145 µM; in assay [9] it was 0.159 µM; in assay [10], 0.2 µM. Also, the TGI in [1] was determined as 1.57 µM; in assay [2] it was 8.4 µM; in [3], 7.38 µM; in [4] it was 0.16 µM; in [5], 5 µM; in assay [6] it was 5.37 µM. In addition, the total growth inhibition concentration (TGI) in [7] was 2.06 µM; in assay [8] it was 1.29 µM; in [9], 1.16 µM; in [10], 3.95 µM.

As for `O=C1c2ccccc2-c2nccc3cc(Cl)nc1c23`, the GI50 in [1] was 1.99 µM; in [2], 1.3 µM; in assay [3], 48.9 µM; in [4], 6.21 µM; in assay [5], 2.43 µM; in [6], 2.25 µM. Further, the GI50 in assay [7] is 1.97 µM; in assay [8], 1.74 µM; in assay [9], 1.18 µM. Moreover, the TGI in [1] was 14.2 µM; in [2] it was 2.72 µM; in assay [3], greater than 100 µM; in [4] it was 32.5 µM; in assay [5] it was 10.4 µM; in assay [6], greater than 100 µM. The TGI in [7] is greater than 100 µM; in assay [8] it was 4.28 µM; in assay [9], 2.41 µM.

`OCCCCC#Cc1ccccc1C#Cc1ccccc1F`: the GI50 in assay [1] was 27.5 µM; in assay [2], 42.1 µM; in assay [3] it was 29.4 µM; in assay [4] it was 26.9 µM; in assay [5], 16 µM; in [6], 18.1 µM. Moreover, the GI50 in assay [7] is 22.2 µM; in assay [8], 25.3 µM; in [9], 16.2 µM; in assay [10], 20.8 µM. Further, the total growth inhibition concentration (TGI) was 71.9 µM in assay [1]; greater than 100 µM in assay [2]; 94.4 µM in [3]; 82.5 µM in assay [4]; 33.6 µM in [5]; 40.4 µM in assay [6]. For the same compound, the TGI in assay [7] came to 44.9 µM; in [8], 62.4 µM; in assay [9], 29.9 µM; in assay [10] it was 47.9 µM.

As for `O=CN1N=C(c2ccc(Nc3ccnc4cc(Cl)ccc34)cc2)CC1c1ccccc1` (stereo unspecified), the GI50 in [1] is 3.77 µM; in assay [2], 3.42 µM; in assay [3] it was 4.94 µM; in assay [4], 1.3 µM; in [5] it was 3.12 µM; in assay [6], 3.8 µM. Moreover, the GI50 in [7] was 2.66 µM; in [8], 3.96 µM; in assay [9], 3.58 µM; in [10] it was 4.53 µM. The TGI is 71.1 µM in assay [1]; 26.7 µM in assay [2]; greater than 100 µM in assay [3]; 6.79 µM in [4]; 19.2 µM in assay [5]; greater than 100 µM in [6]. Also, the total growth inhibition concentration (TGI) in assay [7] was 6.21 µM; in assay [8], greater than 100 µM; in assay [9] it was 18.5 µM; in [10], greater than 100 µM.

For the compound `COc1ccc(C(O)c2cc3c(N)c(C(=O)Nc4cccc(Cl)c4C)sc3nc2C)cc1` (stereo unspecified), the GI50 in assay [1] was 0.774 µM; in [2], 0.569 µM; in assay [3], 0.886 µM; in [4], 0.761 µM; in assay [5], 0.797 µM; in assay [6], 0.815 µM. The GI50 was 0.877 µM in assay [7], 0.808 µM in [8] and 0.948 µM in assay [10]. Further, the concentration for total growth inhibition (TGI) in [1] was 1.79 µM; in assay [2], 1.24 µM; in assay [3], 2.16 µM; in [4] it was 1.63 µM; in assay [5], 1.57 µM; in assay [6], 1.61 µM. For the same compound, the values for the concentration for total growth inhibition (TGI) in assay [7], in assay [8] and in assay [10] were 2.14 µM, 1.68 µM and 2.17 µM, respectively.

For the compound `Nc1c(C(=O)c2cccc(-c3ccc[n+]([O-])c3)c2)cnn1-c1ccc(F)cc1F`, the GI50 in assay [1], in [2], in assay [4], in [5], in assay [6] and in [7] was greater than 25 µM throughout. Further, the GI50 in assay [8], in [9] and in assay [10] was greater than 25 µM throughout. The TGI in assay [1], in [2], in [4], in [5], in assay [6] and in [7] was greater than 25 µM throughout. The TGI in [8], in assay [9] and in assay [10] was greater than 25 µM each time.

In the case of `c1cc(C2CCCCC2)ccc1OCCCCCCN1CCNCC1`, the GI50 is 1.96 µM in assay [1]; 1.63 µM in assay [2]; 5.76 µM in assay [3]; 5.06 µM in assay [4]; 1.63 µM in assay [5]; 1.79 µM in [6]. Besides, the GI50 in assay [7] was 1.54 µM. The TGI in [1] worked out at 4.48 µM; in assay [2], 3.32 µM; in [3], 47.3 µM; in assay [4], 26.5 µM; in assay [5], 3.17 µM; in [6], 3.54 µM. The compound also gave a TGI in assay [7] of 3.32 µM.
